Test results reported in patent publication US8093211B2, “Methods and pharmaceutical compositions for healing wounds” (Bar-Ilan University, priority 2001, dated 2012).
No end group written: not given here. *: point of attachment. Myristoyl = CCCCCCCCCCCCCC(=O)*

Assays:
PKCδ [1] = test: PKCδ kinase activity of immunoprecipitates from stimulated keratinocytes; type: cell-based, murine; settings: 10^−7 M insulin or 10^−8 M IGF1 for 1, 15 or 30 minutes
Experimental: To determine PKCδ activity, five-day keratinocyte cultures were stimulated with 10^−7 M insulin (Ins) or 10^−8 M IGF1 (IGF) for the designated times (1, 15, or 30 minutes). PKCδ was immunoprecipitated from membrane (blue bars, mem) and cytosol (purple bars, cyto) fractions using specific anti-PKCδ antibody. PKCδ immunoprecipitates were analyzed for PKC activity utilizing an in vitro kinase assay as described in experimental procedures. Each bar represents the mean±SE of 3 determinations in 3 separate experiments. Values are expressed as pmol ATP/dish/min.
(§1) PKC activity: Specific PKC activity was determined in freshly prepared immunoprecipitates from keratinocyte cultures following appropriate treatments. These lysates were prepared in RIPA buffer without NaF. Activity was measured with the use of the SignaTECT Protein Kinase C Assay System (Promega, Madison, Wis., USA) according to the manufacturer's instructions. PKCα pseudosubstrate was used as the substrate in these studies.
(§2) In order to determine whether the translocation of PKCδ is sufficient for activation, kinase activity of PKC immunoprecipitates from the cytoplasm and membrane fractions of insulin and IGF1 treated keratinocytes was measured.

primary keratinocytes = test: Keratinocyte proliferation by [3H]thymidine incorporation; type: cell-based, murine; settings: for concentration of maximal induction of thymidine incorporation: stimulated for 24 hours, proliferating keratinocytes in low Ca2+
Experimental: Proliferating keratinocytes were maintained for five days in low Ca^2+ medium (0.05 mM) until they reached 80% confluence. (A) Five-day keratinocyte cultures were stimulated for 24 hours with insulin or IGF1 at the designated concentrations. (B) In parallel, keratinocytes were stimulated with 10^−7 M insulin (Ins) and increasing doses of IGF1 (IGF). At each concentration the right column (striped bar) represents proliferation observed when both hormones were added together. […] Thymidine incorporation was measured as described in experimental procedures. The results shown are representative of 6 experiments. Each bar represents the mean±SE of 3 determinations expressed as percent above control unstimulated keratinocytes.
Non-infected (light blue bars), or cells over-expressing WTPKCδ (dark blue bars) or DNPKCδ (slashed blue bars) were treated for 24 hours with 10^−7 M insulin (Ins), 10^−8 M IGF1 (IGF) or both (Ins+IGF). Thymidine incorporation was measured as described in experimental procedures. Each bar represents the mean±SE of 3 determinations in 3 experiments done on separate cultures. Values are expressed as percent of control, unstimulated cells from the same culture in each experiment.
Isolation and culture of murine keratinocytes: Primary keratinocytes were isolated from newborn skin as previously described (18). Keratinocytes were cultured in Eagle's Minimal Essential Medium (EMEM) containing 8% Chelex (Chelex-100, BioRad) treated fetal bovine serum. To maintain a proliferative basal cell phenotype, the final Ca^2+ concentration was adjusted to 0.05 mM. Experiments were performed five to seven days after plating.
Cell proliferaion: Cell proliferation was measured by [^3H]thymidine incorporation in 24 well plates. Cells were pulsed with [^3H]thymidine (1 μCi/ml) overnight. After incubation, cells were washed five times with PBS and 5% TCA was added into each well for 30 minutes. The solution was removed and cells were solubilized in 1% Triton X-100. The labeled thymidine incorporated into cells was counted in a ^3H-window of a Tricarb liquid scintillation counter.

PKCδ [2] = test: Translocation of PKCδ from cytosol to membrane in proliferating keratinocytes (Western blot); type: cell-based, murine; settings: 10^−7 M insulin or 10^−8 M IGF1; as early as 5 minutes following stimulation
Experimental: Primary keratinocytes were isolated and plated as described in the Examples section that follows. Proliferating keratinocytes were maintained for five days in low Ca^2+ medium (0.05 mM) until they reached 80% confluency. Cells were stimulated with 10^−7 M insulin (Ins) or 10^−8 M IGF1 (IGF) for 15 minutes. Cells were lysed, as described, and 20 μg of membrane or cytosol extracts of stimulated and control unstimulated (Cont) cells were subjected to SDS-PAGE and transfer. Blots were probed with specific polyclonal antibodies to each PKC isoform.
Isolation and culture of murine keratinocytes: Primary keratinocytes were isolated from newborn skin as previously described (18). […]
Preparation of cell extracts and Western blot analysis: For crude membrane fractions, whole cell lysates were prepared by scraping cells into PBS containing 10 μg/ml aprotinin, 10 μg/ml leupeptin, 2 μg/ml pepstatin, 1 mM PMSF, 10 mM EDTA, 200 μM NaVO4 and 10 mM NaF. […] Protein concentrations were measured using a modified Lowery assay (Bio-Rad DC Protein Assay Kit). […]
In order to try and identify the endogenous factors, which activate specific PKC isoforms regulating skin proliferation, the ability of several growth factors which are known to promote keratinocyte proliferation including: EGF, KGF, insulin, PDGF and IGF1 to activate specific PKC isoforms in a growth dependent manner was assessed. […]

[3] = test system: incision wounds on the back of C57BL mice; test: Effect of PKCα inhibitor and insulin on wound inflammation in vivo (Example 23); settings: for Incidence of severe inflammation I wound (%): treated daily for 7 days, 1 μM of each agent, observed seven days after wounding
Experimental: Late and severe inflammatory response in wounds may suppress the process of healing, thus preventing such inflammation from development may promote the wound healing process. Accordingly, the effect of PKCα inhibitor and insulin on wound inflammation was tested in the following experiment. Wounds were effected on the back of C57BL mice by incision and were treated daily for 7 days with: (i) PBS, control; (ii) 1 μM of a PKCα inhibitor (pseudosubstrate myristolated; Calibiochem, USA); (iii) 1 μM insulin (Eli Lilly, USA); or a mixture of 1 μM PKCα inhibitor and 1 μM insulin.

[4] = test system: incision wounds on the back of C57BL mice; test: Single vs. multiple applications of insulin for wound healing in vivo (Example 20)
Experimental: Wounds were effected on the back of 8-10 week old C57BL mice by incision and were treated with different concentrations and frequencies of insulin applications (i.e., seven daily repeat applications vs. a single application). The treated mice were sacrificed seven days after wounding and the areas of treated wounds were measured. The results are presented as mm^2 wound area and each bar represents the mean of six replications±standard deviation (p<0.005).
Wounds were effected on the back of 8-10 week old C57BL mice by incision and were treated with different concentrations of insulin and frequencies of applications (i.e., seven daily repeat applications vs. a single application). Histological wound sections were performed seven days after wounding and were analyzed for epidermal and dermal closure (wound contraction). Epidermal closure was assessed by Keratin 14 (K14) antibody staining (left panel) and was considered positive if the wound was stained positive across the entire gap. The dermal closure was considered positive if both dermal wound sides could be observed under a light microscope in a single field at ×10 magnification (right panel). The results are presented as percent of wound closure over control and each bar represents the mean of six replications.
Wounds were effected on the back of 8-10 week old C57BL mice by incision and were treated as follows: (i) insulin 0.1 μM applied daily for 7 days; (ii) insulin 1 μM applied daily for 7 days; (iii) insulin 10 μM applied daily for 7 days; (iv) insulin 1 μM applied once 4 days after wounding; and (v) vehicle (PBS) control applied daily for 7 days. All mice were sacrificed seven days after wounding and their open wound areas were measured.
Since the observed wounds were covered with a scar tissue it was difficult to correctly assess the actual closure of the wound and the formation of reconstructed epidermis. Therefore the effects of insulin on epidermal and dermal closure of wounds tissue were determined by histological parameters. Epidemial closure of wounds was determined by staining wound sections with Keratin 14 antibody (K14, Babco-Convance, Richmond, Calif., USA) which highlighted the formation of basal cells at the wound gap. Dermal closure of wounds was considered positive if both wound sides the dermis could be observed in a single field observed under a light microscope at ×10 magnification.

PKCs α, ε, η, or ζ = test: Kinase activity of other PKC isoforms after insulin stimulation of keratinocytes; type: cell-based, murine; settings: up to 30 minutes following insulin stimulation
Experimental: as §1, §2

[5] = test system: over-expressed PKC isoforms; test: Translocation of over-expressed PKC isoforms by PKC activator in infected keratinocytes; type: cell-based, mouse; settings: stimulated for 30 minutes, 24 hours following infection
Experimental: Four day old primary keratinocytes were infected for 1 hour with isoform specific recombinant PKC adenoviruses. Twenty four hours following infection, cells were either untreated (C) or stimulated with bryostatin 1 (B) for 30 minutes, and fractionated. Protein samples were subjected to Western blotting and analyzed using isoform specific anti-PKC antibodies.
Preparation of cell extracts and Western blot analysis: For crude membrane fractions, whole cell lysates were prepared by scraping cells into PBS containing 10 μg/ml aprotinin, 10 μg/ml leupeptin, 2 μg/ml pepstatin, 1 mM PMSF, 10 mM EDTA, 200 μM NaVO4 and 10 mM NaF. After homogenization and 4 freeze/thaw cycles, lysates were spun down at 4° C. for 20 minutes in a microcentrifuge at maximal speed. The supernatant containing the soluble cytosol protein fraction was transferred to another tube. The pellet was resuspended in 250 μl PBS containing 1% Triton X-100 with protease and phosphatase inhibitors, incubated for 30 minutes at 4° C. and spun down in a microcentrifuge at maximal speed at 4° C. The supernatant contains the membrane fraction. Protein concentrations were measured using a modified Lowery assay (Bio-Rad DC Protein Assay Kit). Western blot analysis of cellular protein fractions was carried out as described (6). […]

STAT3 = test: Insulin induced STAT3 activation and nuclear translocation in keratinocytes (immunofluorescence); type: cell-based, murine; settings: 5 μM Rottlerin for 7 minutes, followed by 10^−7 M insulin for 5 minutes
Experimental: Primary keratinocytes were plated on glass slides and maintained for 5 days in low Ca^++ medium (0.05 mmol/l) until they reached 80% confluency. Cells were untreated (Cont, upper panel) or pre-treated with 5 μM Rottlerin for 7 minutes (R, lower panel), followed by 10^−7 M insulin for 5 minutes (Ins). Cells were fixed by methanol, washed and air-dried. Cultures were analyzed by immunofluorescence using antiphospho-Tyr-705-STAT3 antibody, followed by FITC conjugated secondary antibody. Cells were scanned by confocal microscopy.
Immunofluorescence: Primary keratinocytes were plated on laminin 5 coated glass slides. Two days old keratinocytes were infected with PKC adenovirus for one hour, washed twice with PBS and maintained in culture in low Ca^2+ EMEM. Twenty four hours post infection, cells were fixed in 4% paraformaldehyde for 30 minutes followed by permeabilization with 0.2% Triton for 5 minutes. For analysis, control and PKC infected keratinocytes were rinsed with PBS and incubated overnight at 4° C. with PKC antibodies (Santa Cruz) diluted in 1% BSA in PBS. […] Following two washes in PBS, slides were mounted with glycerol buffer containing 1% of p-phenylenediamine (Sigma) and fluorescence examined by laser scanning confocal imaging microscopy (MRC 1024, Bio-Rad, UK).

## IGF1: growth factor IGF1, a gift from Cytolab (Israel)
PKCδ [1]
  activity of PKCδ in the membrane fraction: insulin but not IGF1 increased activity of PKCδ
Primary keratinocytes; 24 hours
  maximal stimulation of thymidine incorporation, compared at each concentration: greater than that by insulin
Primary keratinocytes
  concentration of maximal induction of thymidine incorporation: 10^−8 M
PKCδ [2]
  translocation of PKCδ between cytoplasm and membrane fractions: reduced PKCδ expression in the membrane

## PKCα inhibitor: PKCα inhibitor of SEQ ID NO:1, PKCα pseudosubstrate myristoylated; Calbiochem (Myristoyl-FARKGALRQ)
[3]; 1 μM daily for 7 days
  decrease of severe wound inflammation incidence, as compared to control: 33.3%
[3]
  Incidence of severe inflammation I wound (%): 40.0%

## insulin: humulinR-recombinant human insulin, purchased from Eli Lilly
[3]; 1 μM daily for 7 days
  effect on severe wound inflammation: not effective
[3]
  Incidence of severe inflammation I wound (%): 56.0%
PKCδ [1]
  activity of PKCδ in the membrane fraction: increased activity of PKCδ
Primary keratinocytes
  concentration of maximal induction of thymidine incorporation: 10^−7 M
Primary keratinocytes; untransfected cells, 10^−7 M insulin for 24 hours
  increase of thymidine incorporation over untreated cells: two to three fold
[4]; 1 μM applied once 4 days after wounding, compared with seven repeat daily applications at 1 μM
  open wound area: substantially more effective
[4]; 1 μM daily for 7 days, compared with daily 0.1 μM or 10 μM
  open wound area: significantly more effective
[4]; 1 μM daily, compared with daily 0.1 μM or 10 μM
  epidermal and dermal closure (histology): significantly more effective
[4]; all insulin treatments (0.1, 1, 10 μM daily; 1 μM single)
  epidermal and dermal closure (histology): effectively promoted epidermal and dermal closure
[4]; single application 1 μM, compared with seven repeat daily applications at 1 μM
  epidermal and dermal closure (histology): substantially more effective
PKCs α, ε, η, or ζ
  activation of PKCs α, ε, η, or ζ: no activation
PKCδ [2]
  translocation of PKCδ between cytoplasm and membrane fractions: specifically induced translocation of PKCδ from the cytoplasm to the membranal fractions

## CCC/C=C/C=C/C(=O)O[C@H]1/C(=C/C(=O)OC)C[C@H]2C[C@H]([C@@H](C)O)OC(=O)C[C@H](O)C[C@@H]3C[C@H](OC(C)=O)C(C)(C)[C@](O)(C[C@@H]4C/C(=C/C(=O)OC)C[C@H](/C=C/C(C)(C)[C@]1(O)O2)O4)O3 [bryostatin 1]
[5]
  translocation of PKCα and δ proteins to the membrane fraction: induced translocation
  translocation of PKCη and ζ isoforms to the membrane fraction: lesser effect

## CC(=O)c1c(O)c(C)c(O)c(Cc2c(O)c3c(c(C(=O)/C=C/c4ccccc4)c2O)OC(C)(C)C=C3)c1O [rottlerin]
STAT3
  activation and nuclear translocation of STAT3 after insulin: inhibits activation as well as nuclear translocation of STAT3
